Source: paper PMC6615598, “Novel antibiotics effective against gram-positive and -negative multi-resistant bacteria with limited resistance” (PLoS Biology, 2019)
Starred links: 1 amine or outer side, 2 acyl side, 3 side chain; linkers in the order of their positions; H or OH if unused. Non-standard residues stand in square brackets, D forms with d. Residues, ends and D or L forms follow the SMILES beside them. azaβ3(1Nal) = O=C(CN(Cc1cccc2ccccc12)N[*:1])[*:2]

Assays:
P. aeruginosa LESB58 = settings: LESB58
Experimental: (10−4 M final concentrations). At selected time intervals, 100 μl of reaction mixture was collected, quenched by 200 μl 95% EtOH, and adjusted at pH 2 to prevent peptide adsorption to serum proteins. […] Supernatants were analyzed by RP-HPLC on an Xbridge C18 column with a linear gradient of water, 0.08% TFA, and acetonitrile with 1% TFA. HPLC peak areas were used to calculate the percentages of intact compound remaining at the various time points. MIC and MBC values were determined in triplicate in many ESKAPE clinical isolates, including a dozen MDR S. aureus, by the broth microdilution method. Peptidomimetics and antibiotics were assayed in a concentration range of 1 to 128 μM. […] After every hour of culture for 4 h, serial dilutions were plated on BHI plates and incubated overnight at 37°C, and then the CFUs were counted and expressed as log CFU/ml. […]
For 15 d in MHB, MICs were determined daily for each pseudopeptide and their antibiotic controls. […] The suspension was diluted in MHB or CAMHB (10^6 cells/ml) and then used to determine the MIC of the same compound determined by micro broth dilution. […] To control compound stability, peptide solution MICs were determined during and at the end of the 15 d and were compared to cells unexposed to antibiotics. In vivo resistance was also assessed in treated mice (1.5 mg.kg^−1) for 4 d (sepsis) or 6 d (skin abscesses). […]

S. aureus 33845 = test: microbe, parasite or virus in culture; settings: 33845
Experimental: (10−4 M final concentrations). At selected time intervals, 100 μl of reaction mixture was collected, quenched by 200 μl 95% EtOH, and adjusted at pH 2 to prevent peptide adsorption to serum proteins. […] Supernatants were analyzed by RP-HPLC on an Xbridge C18 column with a linear gradient of water, 0.08% TFA, and acetonitrile with 1% TFA. HPLC peak areas were used to calculate the percentages of intact compound remaining at the various time points. MIC and MBC values were determined in triplicate in many ESKAPE clinical isolates, including a dozen MDR S. aureus, by the broth microdilution method. Peptidomimetics and antibiotics were assayed in a concentration range of 1 to 128 μM. The bacterial inoculum (5 × 10^5 colony-forming units [CFUs]/well) was prepared in MHB or CAMHB (150 μl). A Biotek Synergy 2 spectrophotometer was used to record the results after 18–20 h incubation at 35°C (±2°C). […] After every hour of culture for 4 h, serial dilutions were plated on BHI plates and incubated overnight at 37°C, and then the CFUs were counted and expressed as log CFU/ml. Phosphate-buffered saline (PBS)-exposed S. aureus MRSA was included as a control.
Supplementary file pbio.3000337.s007.docx: S1 Table Antibacterial activity of the 4 peptidomimetics focusing on 9 S. aureus MDR clinical isolates. Clinical isolates BCB/POE and 740404 DUN are from human sepsis. The other strains are from catheter infections or suppurating wounds. Brilacidin was used as a control. MDR, multidrug resistant. (DOCX) Click here for additional data file.

MRSA (Mu3) = test: microbe, parasite or virus in culture; settings: 15 colonies
Experimental: For 15 d in MHB, MICs were determined daily for each pseudopeptide and their antibiotic controls. This was done using cells from the well in which the compound concentration was one-half of the MIC (1/2MIC). For each compound, the 1/2MIC well from the previous day’s MIC assay plate was re-suspended and the bacteria grown to a density of about 10^8 cells ml−1. The suspension was diluted in MHB or CAMHB (10^6 cells/ml) and then used to determine the MIC of the same compound determined by micro broth dilution. All MIC measurements were performed in duplicate. Aliquots of the 5 × 10^4 cell/ml dilutions for each 1/2MIC well were periodically plated on MHB and incubated at 35°C for 18 h to verify cell density by colony counts and for visual inspection of colony phenotypes. To control compound stability, peptide solution MICs were determined during and at the end of the 15 d and were compared to cells unexposed to antibiotics. In vivo resistance was also assessed in treated mice (1.5 mg.kg^−1) for 4 d (sepsis) or 6 d (skin abscesses). […] The broth microdilution method was performed as per EUCAST recommendations on 5 independent colonies per mouse (3 mice per set, 15 colonies per drug tested). For severe sepsis and subcutaneous abscesses, in vivo resistance was determined by plating aliquots of crude kidney extracts or abscesses on plates containing 1-, 2-, 4-, or 8-fold the peptide MICs 7 or 3 d post infections, respectively.

MRSA [1] = test: In vivo resistance: kidney extracts plated on plates containing 1- to 8-fold peptide MIC (severe sepsis); format: cell-based, S. aureus; settings: kidneys at day 7 after repeated treatments, plates with drug at 2-fold MIC
Experimental: For 15 d in MHB, MICs were determined daily for each pseudopeptide and their antibiotic controls. This was done using cells from the well in which the compound concentration was one-half of the MIC (1/2MIC). For each compound, the 1/2MIC well from the previous day’s MIC assay plate was re-suspended and the bacteria grown to a density of about 10^8 cells ml−1. The suspension was diluted in MHB or CAMHB (10^6 cells/ml) and then used to determine the MIC of the same compound determined by micro broth dilution. All MIC measurements were performed in duplicate. Aliquots of the 5 × 10^4 cell/ml dilutions for each 1/2MIC well were periodically plated on MHB and incubated at 35°C for 18 h to verify cell density by colony counts and for visual inspection of colony phenotypes. To control compound stability, peptide solution MICs were determined during and at the end of the 15 d and were compared to cells unexposed to antibiotics. In vivo resistance was also assessed in treated mice (1.5 mg.kg^−1) for 4 d (sepsis) or 6 d (skin abscesses). […] For severe sepsis and subcutaneous abscesses, in vivo resistance was determined by plating aliquots of crude kidney extracts or abscesses on plates containing 1-, 2-, 4-, or 8-fold the peptide MICs 7 or 3 d post infections, respectively.

MRSA [2] = test: Severe sepsis mouse model, survival; format: in vivo; settings: mice, approximately 2 × 10^9 CFUs MRSA IV; 4 IV doses of 0.5 mg.kg^−1 at 2, 24, 48, 72 h
Excerpt: Tolerance and toxicity studies were done on male Swiss mice (CD-1 Crl: CD-1 [ICR] IGS; Charles River). These were 7 to 10 weeks old and weighed an average of 37.2 g. All experimental protocols were approved by the Adaptive Therapeutics Animal Care and Use Committee (APAFiS #4508-2016031l15541258 v2). For the sepsis model, we used female Swiss mice (Janvier Labs), 6 to 8 weeks old and weighing approximately 30 g. Experiments were monitored in the ARCHE-BIOSIT animal lab in Rennes, in biological duplicate. We used Groups of 5 mice for the mild and the severe sepsis models with MRSA. Mice were IV inoculated with 150 μl of MRSA suspensions in 0.9% NaCl containing approximately 5 × 10^8 CFUs for the “mild” sepsis and approximately 2 × 10^9 CFUs for the “severe” sepsis, respectively. […] Mice survival was monitored for 4 d (“severe” sepsis) or 14 d (“mild” sepsis), and the statistical significance of difference(s) between the groups was evaluated using the Wilcoxon test. P < 0.05 was considered significant. Two weeks (“mild” sepsis) or 4 d (“severe” sepsis) after inoculation, mice were euthanized with CO2.

MRSA [3] = test: Membrane permeation, SYTO Green fluorescence; format: cell-based, S. aureus
Experimental: Permeation assays were also performed on gram-positive S. aureus membranes (MSSA and MRSA) by fluorescence assay [31] with SYTO Green nucleic acid stain (Life Technologies) in black flat-bottom 96-well microtiter plates (Greiner) in biological triplicate. Bacteria were grown to 0.3–0.4 OD600 in CAMHB at 37°C and centrifuged at 3,500 tr/min for 10 min. The pellet was washed and dissolved in PBS to an absorbance of 0.4 at 600 nm (approximately 2.10^8 CFU/ml). SYTO Green was added to the cells at a 5 μM final concentration, with dark incubation for 30 min. The amount of 50 μL of bacteria/SYTO Green mixture was added to each well containing compounds serially diluted in PBS, and fluorescence was measured at 37°C for up to 12 h using a spectrophotometer (BIOTEK, Tungsten-Halogen Lamp) with 485 nm excitation and 525 nm emission wavelengths.

S. aureus Newman = test: SEM and TEM after treatment at MIC; format: cell-based; settings: S. aureus treated at the MIC, 2 h 37°C
Experimental: S. aureus Newman and E. coli K12 were cultured in MHB to an OD600 of 0.5 (10^8 CFU/ml). After adding peptides, samples were incubated at 160 rpm for 2 h at 37°C before centrifugation. Bacteria were exposed to pseudopeptide concentrations at their MIC. Untreated controls were prepared under identical conditions. Cell pellets were obtained after cell suspension centrifugation (1,000–3,000g for 5 min). […] S. aureus Newman samples were embedded in 2% agar and dehydrated in a graded series of increasing ethanol concentrations (50, 70, 90, and 100% v/v). For E. coli K12, the samples were placed on a 0.2 μm filter disc, dehydrated in a series of increasing ethanol concentrations, and vacuum dried for 48 h. For SEM observation, specimens were obtained after preparation with a Leica EM CPD300 critical point dryer. A Leica EM ACE200 was used for gold palladium metallization for 30 s. Sample observation was performed with a JEOL JSM-6301F microscope at 7 kV with a 15 mm work distance. TEM was also used to visualize the morphology and intracellular alteration of peptide-treated bacterial cells. For this, bacteria were grown and incubated with AMPs as described above for SEM sample preparation, and controls were prepared in standard medium. Cell pellets were also prepared as described above. […]

CC(C)[C@@H]1NC(=O)[C@H](CCCNC(=N)N)NC(=O)[C@H](CCCNC(=N)N)NC(=O)CN(Cc2cccc3ccccc23)NC(=O)[C@H](Cc2ccccc2)NC(=O)CN(Cc2cccc3ccccc23)NC(=O)[C@H](CCCCN)NC1=O [Pep19] (cyclo([azaβ3(1Nal)]F[azaβ3(1Nal)]RRVK))
MIC (P. aeruginosa LESB58): 4 µM
MIC (S. aureus 33845): 16 mg/L^-1
MIC (MRSA (Mu3); MRSA colonies from kidneys of septic mice, d4, single IV 1.5 mg.kg^−1 at 3 h or 15 h): 8 (8.8) μM
MIC (MRSA (Mu3); MRSA colonies from mice skin abscess, d6, single IV 1.5 mg.kg^−1 at 24 h): 16 (16.2) μM
Clones with increased resistance from kidneys (MRSA [1]): no clones with increased resistances were detected
Survival in severe sepsis (MRSA [2]): protected the infected animals
Membrane permeation (leakage) (MRSA [3]): most active
Cell wall erosion by electron microscopy (S. aureus Newman): eroded
